Activity calls are given as the source filed them. No cut-off for these calls is given here.
Assays:
Diaporthe ampelina [1] = experiment: Antifungal activity against Diaporthe ampelina infected grape plant assessed as decrease in lesions on leaf at 0.12 kg a.i./ha incubated for 24 hr prior to treatment with 20 hr wetness period followed by 4 hr drying period measured after 4 weeks relative to control in presence of regulaid; format: functional, organism-based
Diaporthe ampelina [2] = experiment: Antifungal activity against Diaporthe ampelina infected grape plant assessed as disease severity at internodes at 0.12 kg a.i./ha incubated for 24 hr prior to treatment with 20 hr wetness period followed by 4 hr drying period measured after 4 weeks in presence of regulaid (reference value: 4.7%); format: functional
Diaporthe ampelina [3] = experiment: Antifungal activity against Diaporthe ampelina infected grape plant assessed as disease severity at internodes at 0.5 kg/ha incubated for 24 hr prior to treatment with 20 hr wetness period followed by 4 hr drying period measured after 4 weeks in presence of regulaid (reference value: 3.2%); format: functional
Diaporthe ampelina [4] = experiment: Antifungal activity against Diaporthe ampelina infected grape plant assessed as re-isolation of mycelium from infected vines at 0.12 kg a.i./ha treated for weeks in presence of regulaid followed by inoculation on medium measured after 72 hr (reference value: 62.5%); format: functional
Diaporthe ampelina [5] = experiment: Antifungal activity against Diaporthe ampelina infected grape plant assessed as decrease in lesions on leaf at 0.12 kg a.i./ha treated 3 to 6 hr prior to inoculation followed by 24 hr wetness period measured after 4 weeks relative to control in presence of regulaid; format: functional, organism-based
Diaporthe ampelina [6] = experiment: Antifungal activity against Diaporthe ampelina infected grape plant assessed as decrease in lesions on leaf at 0.12 kg a.i./ha treated 3 to 6 hr prior to inoculation followed by 24 hr wetness period measured after 4 weeks relative to control; format: functional, organism-based
Diaporthe ampelina [7] = experiment: Antifungal activity against Diaporthe ampelina infected grape plant assessed as disease severity at internodes at 0.12 kg a.i./ha treated 3 to 6 hr prior to inoculation followed by 24 hr wetness period measured after 4 weeks in presence of regulaid (reference value: 2.9%); format: functional
Diaporthe ampelina [8] = experiment: Antifungal activity against Diaporthe ampelina infected grape plant assessed as decrease in lesions on leaf at 0.12 kg a.i./ha incubated for 20 hr prior to treatment with 16 hr wetness period and 4 hr drying time measured after 4 weeks relative to control in presence of regulaid; format: functional, organism-based
Diaporthe ampelina [9] = experiment: Antifungal activity against Diaporthe ampelina infected grape plant assessed as decrease in lesions on leaf at 0.5 kg/ha incubated for 24 hr prior to treatment with 20 hr wetness period followed by 4 hr drying period measured after 4 weeks relative to control in presence of regulaid; format: functional, organism-based
Diaporthe ampelina [10] = experiment: Antifungal activity against Diaporthe ampelina infected grape plant assessed as disease severity at internodes at 0.12 kg a.i./ha treated 3 to 6 hr prior to inoculation followed by 24 hr wetness period measured after 4 weeks (reference value: 2.6%); format: functional
Diaporthe ampelina [11] = experiment: (§1) Antifungal activity against Diaporthe ampelina infected grape plant assessed as disease severity at internodes at 0.12 kg a.i./ha incubated for 48 hr prior to treatment with 24 hr wetness period followed by 24 hr of drying period measured after 4 weeks in presence of regulaid (reference value: 12.2%); format: functional
Diaporthe ampelina [12] = experiment: Antifungal activity against Diaporthe ampelina infected grape plant assessed as decrease in lesions on leaf at 0.12 kg a.i./ha incubated for 48 hr prior to treatment with 24 hr wetness period followed by 24 hr of drying period measured after 4 weeks relative to control in presence of regulaid; format: functional, organism-based
Diaporthe ampelina [13] = experiment: Antifungal activity against Diaporthe ampelina infected grape plant assessed as disease severity at internodes at 0.12 kg a.i./ha incubated for 20 hr prior to treatment with 16 hr wetness period and 4 hr drying time measured after 4 weeks in presence of regulaid (reference value: 7.3%); format: functional
Diaporthe ampelina [14] = experiment: Antifungal activity against Diaporthe ampelina infected grape plant assessed as disease severity at internodes at 1.19 kg a.i./ha treated 3 to 6 hr prior to inoculation followed by 24 hr wetness period measured after 4 weeks in presence of regulaid (reference value: 2.9%); format: functional
Diaporthe ampelina [15] = experiment: Antifungal activity against Diaporthe ampelina infected grape plant assessed as decrease in lesions on leaf at 1.19 kg a.i./ha incubated for 48 hr prior to treatment with 24 hr wetness period followed by 24 hr of drying period measured after 4 weeks relative to control in presence of stylet oil; format: functional, organism-based
Diaporthe ampelina [16] = experiment: Antifungal activity against Diaporthe ampelina infected grape plant assessed as decrease in lesions on leaf at 1.19 kg a.i./ha treated 3 to 6 hr prior to inoculation followed by 24 hr wetness period measured after 4 weeks relative to control in presence of stylet oil; format: functional, organism-based
Diaporthe ampelina [17] = experiment: as §1, with “1.19” for “0.12”; format: functional
Diaporthe ampelina [18] = experiment: as §1, with “1.19” for “0.12”, “stylet oil” for “regulaid”; format: functional
Diaporthe ampelina [19] = experiment: Antifungal activity against Diaporthe ampelina infected grape plant assessed as decrease in lesions on leaf at 1.19 kg a.i./ha treated 3 to 6 hr prior to inoculation followed by 24 hr wetness period measured after 4 weeks relative to control; format: functional, organism-based
Diaporthe ampelina [20] = experiment: Antifungal activity against Diaporthe ampelina infected grape plant assessed as disease severity at internodes at 1.19 kg a.i./ha incubated for 20 hr prior to treatment with 16 hr wetness period and 4 hr drying time measured after 4 weeks in presence of stylet oil(reference value: 7.3%); format: functional
Diaporthe ampelina [21] = experiment: Antifungal activity against Diaporthe ampelina infected grape plant assessed as re-isolation of mycelium from infected vines at 1.19 kg a.i./ha treated for weeks in presence of regulaid followed by inoculation on medium measured after 72 hr (reference value: 62.5%); format: functional
Diaporthe ampelina [22] = experiment: Antifungal activity against Diaporthe ampelina infected grape plant assessed as disease severity at internodes at 2.6 kg/ha incubated for 24 hr prior to treatment with 20 hr wetness period followed by 4 hr drying period measured after 4 weeks in presence of stylet oil(reference value: 3.2%); format: functional
Diaporthe ampelina [23] = experiment: Antifungal activity against Diaporthe ampelina infected grape plant assessed as decrease in lesions on leaf at 1.19 kg a.i./ha incubated for 20 hr prior to treatment with 16 hr wetness period and 4 hr drying time measured after 4 weeks relative to control in presence of regulaid; format: functional, organism-based
Diaporthe ampelina [24] = experiment: Antifungal activity against Diaporthe ampelina infected grape plant assessed as decrease in lesions on leaf at 1.19 kg a.i./ha incubated for 24 hr prior to treatment with 20 hr wetness period followed by 4 hr drying period measured after 4 weeks relative to control in presence of stylet oil; format: functional, organism-based
Diaporthe ampelina [25] = experiment: Antifungal activity against Diaporthe ampelina infected grape plant assessed as disease severity at internodes at 1.19 kg a.i./ha treated 3 to 6 hr prior to inoculation followed by 24 hr wetness period measured after 4 weeks (reference value: 2.6%); format: functional
Diaporthe ampelina [26] = experiment: Antifungal activity against Diaporthe ampelina infected grape plant assessed as decrease in lesions on leaf at 2.6 kg/ha incubated for 24 hr prior to treatment with 20 hr wetness period followed by 4 hr drying period measured after 4 weeks relative to control in presence of stylet oil; format: functional, organism-based
Diaporthe ampelina [27] = experiment: Antifungal activity against Diaporthe ampelina infected grape plant assessed as disease severity at internodes at 1.19 kg a.i./ha treated 3 to 6 hr prior to inoculation followed by 24 hr wetness period measured after 4 weeks in presence of stylet-oil(reference value: 2.9%); format: functional
Diaporthe ampelina [28] = experiment: Antifungal activity against Diaporthe ampelina infected grape plant assessed as disease severity at internodes at 1.19 kg a.i./ha incubated for 20 hr prior to treatment with 16 hr wetness period and 4 hr drying time measured after 4 weeks in presence of regulaid (reference value: 7.3%); format: functional
Diaporthe ampelina [29] = experiment: Antifungal activity against Diaporthe ampelina infected grape plant assessed as decrease in lesions on leaf at 1.19 kg a.i./ha incubated for 20 hr prior to treatment with 16 hr wetness period and 4 hr drying time measured after 4 weeks relative to control in presence of stylet oil; format: functional, organism-based
Diaporthe ampelina [30] = experiment: Antifungal activity against Diaporthe ampelina infected grape plant assessed as decrease in lesions on leaf at 1.19 kg a.i./ha incubated for 24 hr prior to treatment with 20 hr wetness period followed by 4 hr drying period measured after 4 weeks relative to control in presence of regulaid; format: functional, organism-based
Diaporthe ampelina [31] = experiment: Antifungal activity against Diaporthe ampelina infected grape plant assessed as decrease in lesions on leaf at 1.19 kg a.i./ha incubated for 48 hr prior to treatment with 24 hr wetness period followed by 24 hr of drying period measured after 4 weeks relative to control in presence of regulaid; format: functional, organism-based
Diaporthe ampelina [32] = experiment: Antifungal activity against Diaporthe ampelina infected grape plant assessed as re-isolation of mycelium from infected vines at 1.19 kg a.i./ha treated for weeks in presence of stylet oil followed by inoculation on medium measured after 72 hr (reference value: 62.5%); format: functional
Diaporthe ampelina [33] = experiment: Antifungal activity against Diaporthe ampelina infected grape plant assessed as disease severity at internodes at 2.6 kg/ha incubated for 24 hr prior to treatment with 20 hr wetness period followed by 4 hr drying period measured after 4 weeks in presence of regulaid (reference value: 3.2%); format: functional
Diaporthe ampelina [34] = experiment: Antifungal activity against Diaporthe ampelina infected grape plant assessed as disease severity at internodes at 1.19 kg a.i./ha incubated for 24 hr prior to treatment with 20 hr wetness period followed by 4 hr drying period measured after 4 weeks in presence of regulaid (reference value: 4.7%); format: functional
Diaporthe ampelina [35] = experiment: Antifungal activity against Diaporthe ampelina infected grape plant assessed as decrease in lesions on leaf at 2.6 kg/ha incubated for 24 hr prior to treatment with 20 hr wetness period followed by 4 hr drying period measured after 4 weeks relative to control in presence of regulaid; format: functional, organism-based
Diaporthe ampelina [36] = experiment: Antifungal activity against Diaporthe ampelina infected grape plant assessed as decrease in lesions on leaf at 1.19 kg a.i./ha treated 3 to 6 hr prior to inoculation followed by 24 hr wetness period measured after 4 weeks relative to control in presence of regulaid; format: functional, organism-based
Diaporthe ampelina [37] = experiment: Antifungal activity against Diaporthe ampelina infected grape plant assessed as disease severity at internodes at 1.19 kg a.i./ha incubated for 24 hr prior to treatment with 20 hr wetness period followed by 4 hr drying period measured after 4 weeks in presence of stylet oil(reference value: 4.7%); format: functional

CCCCC(C#N)(Cn1cncn1)c1ccc(Cl)cc1 (configuration not stated) [MYCLOBUTANIL]
Activity (Diaporthe ampelina [1]): inactive | Activity (Diaporthe ampelina [2]): 3.5% | Activity (Diaporthe ampelina [3]): 3.1% | Activity (Diaporthe ampelina [4]): 68.7% | Activity (Diaporthe ampelina [5]): inactive | Activity (Diaporthe ampelina [6]): inactive | Activity (Diaporthe ampelina [7]): 0.1% | Activity (Diaporthe ampelina [8]): inactive | Activity (Diaporthe ampelina [9]): inactive | Activity (Diaporthe ampelina [10]): 0.6% | Activity (Diaporthe ampelina [11]): 6.7% | Activity (Diaporthe ampelina [12]): inactive | Activity (Diaporthe ampelina [13]): 5.2%

COC(=O)NC(=S)Nc1ccccc1NC(=S)NC(=O)OC [THIOPHANATE METHYL]
Activity (Diaporthe ampelina [14]): 1% | Activity (Diaporthe ampelina [15]): inactive | Activity (Diaporthe ampelina [16]): Active | Activity (Diaporthe ampelina [17]): 3.8% | Activity (Diaporthe ampelina [18]): 5.1% | Activity (Diaporthe ampelina [19]): Active | Activity (Diaporthe ampelina [20]): 7.5% | Activity (Diaporthe ampelina [21]): 37.1% | Activity (Diaporthe ampelina [22]): 1.8% | Activity (Diaporthe ampelina [23]): inactive | Activity (Diaporthe ampelina [24]): inactive | Activity (Diaporthe ampelina [25]): 0.1% | Activity (Diaporthe ampelina [26]): inactive | Activity (Diaporthe ampelina [27]): 2% | Activity (Diaporthe ampelina [28]): 4% | Activity (Diaporthe ampelina [29]): inactive | Activity (Diaporthe ampelina [30]): inactive | Activity (Diaporthe ampelina [31]): inactive | Activity (Diaporthe ampelina [32]): 41.1% | Activity (Diaporthe ampelina [33]): 0.7% | Activity (Diaporthe ampelina [34]): 3.3% | Activity (Diaporthe ampelina [35]): inactive | Activity (Diaporthe ampelina [36]): Active | Activity (Diaporthe ampelina [37]): 0.7%

Reference: ChEMBL document CHEMBL3046026, “Evaluation of the curative and protectant activity of fungicides and fungicide-adjuvant mixtures on Phomopsis cane and leaf spot of grape: A controlled environment study” (2007)
